In ChEMBL document CHEMBL3792309, “Seeking potent anti-tubercular agents: Design, synthesis, anti-tubercular activity and docking study of various ((triazoles/indole)-piperazin-1-yl/1,4-diazepan-1-yl)benzo[d]isoxazole derivatives” (Bioorg Med Chem Lett, 2016) one finds MIC data, which are given here for 39 compounds.

In this assay the test system is Mycobacterium tuberculosis. Put plainly: Antimicrobial activity against p-aminosalicylic acid/isonicotinic acid hydrazide/etambutol/rifampicin resistant Mycobacterium tuberculosis Spec. 210 by classical test tube method. The class given is functional.

Broadly, the MIC is the smallest concentration in the dilution series that meets the test's criterion for growth inhibition. Higher therefore signals a need for much substance.

≈ marks a conversion by molar mass, not a printed value.

With `O=C(CCCc1c[nH]c2ccccc12)N1CCCN(c2noc3ccccc23)CC1`, the minimal inhibitory concentration (MIC) is more than 200 µM.

In turn, `O=C(CCc1c[nH]c2ccccc12)N1CCN(c2noc3ccccc23)CC1` returned a minimum inhibitory concentration (MIC) of more than 200 µM.

Regarding `O=[N+]([O-])c1ccc(-n2cc(CN3CCN(c4noc5cc(Cl)ccc45)CC3)nn2)cc1`, the MIC was more than 200 µM. `O=C(CCCc1c[nH]c2ccccc12)N1CCN(c2noc3ccccc23)CC1` displayed an MIC of more than 200 µM. In the case of `O=C(Cc1c[nH]c2ccccc12)N1CCN(c2noc3ccccc23)CC1`, the MIC is more than 200 µM. On to `C#CCN1CCCN(c2noc3ccccc23)CC1`, for which inhibition of growth (MIC) required 196 µM (≈ 50 µg/mL). `O=C(CCc1c[nH]c2ccccc12)N1CCN(c2noc3cc(Cl)ccc23)CC1` gave a minimal inhibitory concentration (MIC) of more than 200 µM.

`CCc1ccc(-n2cc(CN3CCCN(c4noc5ccccc45)CC3)nn2)cc1`: the MIC is more than 200 µM.

The compound `Brc1ccc(-n2cc(CN3CCCN(c4noc5ccccc45)CC3)nn2)cc1` returned an MIC of more than 200 µM. In turn, `Clc1ccc2c(N3CCN(Cc4cn(-c5ccc(Br)cc5)nn4)CC3)noc2c1` showed a minimum inhibitory concentration (MIC) of more than 200 µM.

As to `Brc1ccc(-n2cc(CN3CCN(c4noc5ccccc45)CC3)nn2)cc1`, the MIC was more than 200 µM. `COc1ccc(-n2cc(CN3CCCN(c4noc5ccccc45)CC3)nn2)cc1` registered a minimal inhibitory concentration (MIC) of more than 200 µM.

`FC(F)(F)c1cc(-n2cc(CN3CCN(c4noc5ccccc45)CC3)nn2)ccc1Br` returned an MIC of 6.16 µM (≈ 3.13 µg/mL).

On to `CCc1ccc(-n2cc(CN3CCN(c4noc5ccccc45)CC3)nn2)cc1`, for which the MIC was more than 200 µM. Regarding `COc1cccc(-n2cc(CN3CCCN(c4noc5ccccc45)CC3)nn2)c1`, the MIC was more than 200 µM. In the case of `Fc1ccc(-n2cc(CN3CCN(c4noc5cc(Cl)ccc45)CC3)nn2)cc1` it was 121 µM (≈ 50.1 µg/mL); in that of `COc1ccc(-n2cc(CN3CCN(c4noc5cc(Cl)ccc45)CC3)nn2)cc1`, 118 µM (≈ 50.1 µg/mL); in that of `NNC(=O)c1ccncc1` [ISONIAZID], 91.1 µM (≈ 12.5 µg/mL). On to `CCc1ccc(-n2cc(CN3CCN(c4noc5cc(Cl)ccc45)CC3)nn2)cc1`, for which the MIC was more than 200 µM. With `COc1cccc(-n2cc(CN3CCN(c4noc5ccccc45)CC3)nn2)c1` the figure was 128 µM (≈ 50 µg/mL); with `Fc1ccc(-n2cc(CN3CCN(c4noc5ccccc45)CC3)nn2)cc1`, 132 µM (≈ 50 µg/mL). In the case of `Clc1ccc(-n2cc(CN3CCCN(c4noc5ccccc45)CC3)nn2)cc1` it was more than 200 µM.

In turn, `Clc1cccc(-n2cc(CN3CCN(c4noc5ccccc45)CC3)nn2)c1` came in with an MIC of 63.4 µM (≈ 25 µg/mL).

For `O=C(Cc1c[nH]c2ccccc12)N1CCCN(c2noc3ccccc23)CC1`, the minimum inhibitory concentration (MIC) turned out to be 134 µM (≈ 50 µg/mL). Against the preceding compound, the MIC is about 2.1-fold higher. In turn, `O=C(Cc1c[nH]c2ccccc12)N1CCN(c2noc3cc(Cl)ccc23)CC1` came in with a minimal inhibitory concentration (MIC) of 127 µM (≈ 50.1 µg/mL).

Compound `O=C(CCc1c[nH]c2ccccc12)N1CCCN(c2noc3ccccc23)CC1` came in with an MIC of more than 200 µM. With `C#CCN1CCN(c2noc3cc(Cl)ccc23)CC1` the figure was more than 200 µM; with `O=C(CCCc1c[nH]c2ccccc12)N1CCN(c2noc3cc(Cl)ccc23)CC1`, more than 200 µM. In the case of `Clc1ccc(-n2cc(CN3CCN(c4noc5cc(Cl)ccc45)CC3)nn2)cc1` it was more than 200 µM; in that of `Clc1cccc(-n2cc(CN3CCCN(c4noc5ccccc45)CC3)nn2)c1`, 122 µM (≈ 50.1 µg/mL); in that of `O=[N+]([O-])c1ccc(-n2cc(CN3CCN(c4noc5ccccc45)CC3)nn2)cc1`, more than 200 µM. `FC(F)(F)c1cccc(-n2cc(CN3CCCN(c4noc5ccccc45)CC3)nn2)c1` returned an MIC of 28.3 µM (≈ 12.5 µg/mL). In turn, `FC(F)(F)c1cccc(-n2cc(CN3CCN(c4noc5ccccc45)CC3)nn2)c1` had an MIC of 29.2 µM (≈ 12.5 µg/mL). Regarding `C#CCN1CCN(c2noc3ccccc23)CC1`, the MIC was more than 200 µM.

`COc1ccc(-n2cc(CN3CCN(c4noc5ccccc45)CC3)nn2)cc1` came in with a minimal inhibitory concentration (MIC) of more than 200 µM.

Compound `Clc1ccc(-n2cc(CN3CCN(c4noc5ccccc45)CC3)nn2)cc1` came in with an MIC of more than 200 µM. Turning to `O=[N+]([O-])c1ccc(-n2cc(CN3CCCN(c4noc5ccccc45)CC3)nn2)cc1`, the MIC was more than 200 µM.

The compound `FC(F)(F)c1cc(-n2cc(CN3CCCN(c4noc5ccccc45)CC3)nn2)ccc1Br` displayed a minimal inhibitory concentration (MIC) of 24 µM (≈ 12.5 µg/mL). The compound `Fc1ccc(-n2cc(CN3CCCN(c4noc5ccccc45)CC3)nn2)cc1` showed an MIC of 127 µM (≈ 50 µg/mL).
